Results reported in patent publication US20240058464A1 (Fortis Therapeutics, Inc., priority 2021, published 2024).

What was measured:
CD46 expression [1] = assay: CD46 expression by RNA-sequencing in unpaired pre-treatment and post-treatment tumor biopsies; format: in vivo, human; details: for CD46 expression Post: post-treatment biopsies
CD46 expression [2] = assay: CD46 expression by RNA-sequencing in paired tumor biopsies before and after therapy; details: paired biopsies; for CD46 expression, Post-Treatment Biopsy / CD46 expression, Pre-Treatment Biopsy: RNA-seq log2-transformed counts;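 for all read-outs here: FFPE human tumor biopsies, exome-capture RNA-seq, reads aligned to GRCh37, counts normalized for GC content, length and depth, summed per gene, log2-transformed, samples paired before versus after therapy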
Protocol: Gene expression was determined by RNA-sequencing from formalin-fixed, paraffin-embedded (FFPE) tumor samples using an exome capture-based protocol. Briefly, total nucleic acid was extracted from FFPE solid tumor samples. The RNA sample was treated with DNAse and reverse transcribed. cDNA was captured with a custom probe set targeting the human exome. A library was prepared from the captured cDNA and sequenced on the Illumina platform. Sequence read were aligned to GRCh37 using Kallisto and normalized to quantify gene expression. Specifically, transcript counts were corrected for GC content and length using quantile normalization and adjusted for sequencing depth via a size factor method. Normalized counts in protein coding transcripts covered by the exome panel were then summed to obtain gene-level counts. Subsequent expression analyses were performed on log2-transformed counts.

[3] = Biliary Cancer, Post minus Pre, unpaired biopsies, log2-transformed counts
[4] = Biliary Cancer, post- vs pre-treatment unpaired biopsies
[5] = Biliary Cancer, unpaired, RNA-seq log2-transformed normalized counts
[6] = Colorectal Cancer, Post minus Pre, unpaired biopsies, log2-transformed counts
[7] = Colorectal Cancer, post- vs pre-treatment unpaired biopsies
[8] = Colorectal Cancer, unpaired, RNA-seq log2-transformed normalized counts
[9] = Esophageal Cancer, Post minus Pre, unpaired biopsies, log2-transformed counts
[10] = Esophageal Cancer, post- vs pre-treatment unpaired biopsies
[11] = Esophageal Cancer, unpaired, RNA-seq log2-transformed normalized counts
[12] = Gastric Cancer, Post minus Pre, unpaired biopsies, log2-transformed counts
[13] = Gastric Cancer, post- vs pre-treatment unpaired biopsies
[14] = Gastric Cancer, unpaired, RNA-seq log2-transformed normalized counts

With `Nc1nc2c(c(=O)[nH]1)N(C=O)C(CNc1ccc(C(=O)N[C@@H](CCC(=O)O)C(=O)O)cc1)CN2` (stereo partly shown) [leucovorin] the CD46 expression diff (CD46 expression [1]; [3]) was 0.00, the “CD46 expression Percentage change” value (CD46 expression [1]; [4]) was 0.1% and the “CD46 expression Post” value (CD46 expression [1]; [5]) was 5.92. The CD46 expression diff (CD46 expression [1]; [6]) was 0.08, the “CD46 expression Percentage change” value (CD46 expression [1]; [7]) was 1.2% and the “CD46 expression Post” value (CD46 expression [1]; [8]) was 6.46. The CD46 expression diff (CD46 expression [1]; [9]) was −0.05, the “CD46 expression Percentage change” value (CD46 expression [1]; [10]) was −0.9% and the “CD46 expression Post” value (CD46 expression [1]; [11]) was 5.84. For the same compound, the CD46 expression diff (CD46 expression [1]; [12]) was −0.11, the “CD46 expression Percentage change” value (CD46 expression [1]; [13]) was −1.8% and the “CD46 expression Post” value (CD46 expression [1]; [14]) was 5.68. The CD46 expression diff (CD46 expression [1]; Pancreatic Cancer, post minus pre, unpaired biopsies) was −0.15, the “CD46 expression Percentage change” value (CD46 expression [1]; Pancreatic Cancer, post vs pre, unpaired biopsies) was −2.5% and the “CD46 expression Post” value (CD46 expression [1]; Pancreatic Cancer, log2-transformed RNA-seq counts) was 5.76. For the same compound, the “CD46 expression diff (post minus pre)” value (CD46 expression [2]; Colorectal Cancer) was −0.07, the “Percent Change in CD46 expression” value (CD46 expression [2]; Colorectal Cancer) was −1.0% and the “CD46 expression, Post-Treatment Biopsy” value (CD46 expression [2]; Colorectal Cancer) was 6.30. The “CD46 expression diff (post minus pre)” value (CD46 expression [2]; Esophageal Cancer) was −0.14, the “Percent Change in CD46 expression” value (CD46 expression [2]; Esophageal Cancer) was −2.3% and the “CD46 expression, Post-Treatment Biopsy” value (CD46 expression [2]; Esophageal Cancer) was 5.74. For the same compound, the “CD46 expression diff (post minus pre)” value (CD46 expression [2]; Pancreatic Cancer) was 0.09, the “Percent Change in CD46 expression” value (CD46 expression [2]; Pancreatic Cancer) was 1.5% and the “CD46 expression, Post-Treatment Biopsy” value (CD46 expression [2]; Pancreatic Cancer) was 5.92.

In the case of `CCNC(=O)[C@@H]1CCCN1C(=O)[C@H](CCCNC(=N)N)NC(=O)[C@H](CC(C)C)NC(=O)[C@@H](CC(C)C)NC(=O)[C@H](Cc1ccc(O)cc1)NC(=O)[C@H](CO)NC(=O)[C@H](Cc1c[nH]c2ccccc12)NC(=O)[C@H](Cc1c[nH]cn1)NC(=O)[C@@H]1CCC(=O)N1` [leuprolide], the CD46 expression diff (CD46 expression [1]; Breast Cancer, post minus pre, unpaired biopsies) is reported as −0.15, the “CD46 expression Percentage change” value (CD46 expression [1]; Breast Cancer, post vs pre, unpaired biopsies) is reported as −2.3% and the “CD46 expression Post” value (CD46 expression [1]; Breast Cancer, log2-transformed RNA-seq counts) is reported as 6.18. The “CD46 expression Pre” value (CD46 expression [1]; Breast Cancer, pre-treatment biopsies, log2-transformed RNA-seq counts) was 6.33, the CD46 expression diff (CD46 expression [1]; Prostate Cancer, Post minus Pre, unpaired biopsies, log2-transformed counts) was −0.10 and the “CD46 expression Percentage change” value (CD46 expression [1]; Prostate Cancer, post- vs pre-treatment unpaired biopsies) was −1.6%. The “CD46 expression Post” value (CD46 expression [1]; Prostate Cancer, unpaired, RNA-seq log2-transformed normalized counts) was 6.08, the “CD46 expression diff (post minus pre)” value (CD46 expression [2]; Prostate Cancer) was −0.19 and the “Percent Change in CD46 expression” value (CD46 expression [2]; Prostate Cancer) was −3.1%. For the same compound, the “CD46 expression, Post-Treatment Biopsy” value (CD46 expression [2]; Prostate Cancer) was 5.92 and the “CD46 expression, Pre-Treatment Biopsy” value (CD46 expression [2]; Prostate Cancer) was 6.11.

In the case of `O=C(c1cc(Cc2n[nH]c(=O)c3ccccc23)ccc1F)N1CCN(C(=O)C2CC2)CC1` [olaparib], the CD46 expression diff (CD46 expression [1]; Breast Cancer, Post minus Pre, unpaired biopsies, log2-transformed counts) is reported as 0.04, the “CD46 expression Percentage change” value (CD46 expression [1]; Breast Cancer, post- vs pre-treatment unpaired biopsies) is reported as 0.6% and the “CD46 expression Post” value (CD46 expression [1]; Breast Cancer, unpaired, RNA-seq log2-transformed normalized counts) is reported as 6.15. The CD46 expression diff (CD46 expression [1]; Ovarian Cancer, Post minus Pre, unpaired biopsies, log2-transformed counts) was −0.02, the “CD46 expression Percentage change” value (CD46 expression [1]; Ovarian Cancer, post- vs pre-treatment unpaired biopsies) was −0.3% and the “CD46 expression Post” value (CD46 expression [1]; Ovarian Cancer, unpaired, RNA-seq log2-transformed normalized counts) was 5.70. For the same compound, the “CD46 expression diff (post minus pre)” value (CD46 expression [2]; Ovarian Cancer) was −0.14, the “Percent Change in CD46 expression” value (CD46 expression [2]; Ovarian Cancer) was −2.5% and the “CD46 expression, Post-Treatment Biopsy” value (CD46 expression [2]; Ovarian Cancer) was 5.51.

With `C=CC(=O)Nc1cc(Nc2nccc(-c3cn(C)c4ccccc34)n2)c(OC)cc1N(C)CCN(C)C` [osimertinib] the CD46 expression diff (CD46 expression [1]; Non-Small Cell Lung Cancer, post minus pre, unpaired biopsies) was −0.29, the “CD46 expression Percentage change” value (CD46 expression [1]; Non-Small Cell Lung Cancer, post vs pre, unpaired biopsies) was −4.4% and the “CD46 expression Post” value (CD46 expression [1]; Non-Small Cell Lung Cancer, log2-transformed RNA-seq counts) was 6.23. The “CD46 expression diff (post minus pre)” value (CD46 expression [2]; Non-Small Cell Lung Cancer) was −0.26 and the “Percent Change in CD46 expression” value (CD46 expression [2]; Non-Small Cell Lung Cancer) was −4.0%.

With `O=C1[O][Pt]2([NH][C@@H]3CCCC[C@H]3[NH]2)[O]C1=O` [oxaliplatin] the CD46 expression diff (CD46 expression [1]; [3]) was 0.05, the “CD46 expression Percentage change” value (CD46 expression [1]; [4]) was 0.9% and the “CD46 expression Post” value (CD46 expression [1]; [5]) was 5.91. For the same compound, the CD46 expression diff (CD46 expression [1]; [6]) was 0.04, the “CD46 expression Percentage change” value (CD46 expression [1]; [7]) was 0.6% and the “CD46 expression Post” value (CD46 expression [1]; [8]) was 6.42. For the same compound, the CD46 expression diff (CD46 expression [1]; [9]) was −0.06, the “CD46 expression Percentage change” value (CD46 expression [1]; [10]) was −1.0% and the “CD46 expression Post” value (CD46 expression [1]; [11]) was 5.85. The CD46 expression diff (CD46 expression [1]; [12]) was −0.12, the “CD46 expression Percentage change” value (CD46 expression [1]; [13]) was −2.1% and the “CD46 expression Post” value (CD46 expression [1]; [14]) was 5.66. For the same compound, the CD46 expression diff (CD46 expression [1]; Pancreatic Cancer, Post minus Pre, unpaired biopsies, log2-transformed counts) was −0.13, the “CD46 expression Percentage change” value (CD46 expression [1]; Pancreatic Cancer, post- vs pre-treatment unpaired biopsies) was −2.2% and the “CD46 expression diff (post minus pre)” value (CD46 expression [2]; Colorectal Cancer) was −0.04. The “Percent Change in CD46 expression” value (CD46 expression [2]; Colorectal Cancer) was −0.6%, the “CD46 expression, Post-Treatment Biopsy” value (CD46 expression [2]; Colorectal Cancer) was 6.26 and the “CD46 expression, Pre-Treatment Biopsy” value (CD46 expression [2]; Colorectal Cancer) was 6.30. The “CD46 expression diff (post minus pre)” value (CD46 expression [2]; Esophageal Cancer) was −0.17, the “Percent Change in CD46 expression” value (CD46 expression [2]; Esophageal Cancer) was −2.9% and the “CD46 expression, Post-Treatment Biopsy” value (CD46 expression [2]; Esophageal Cancer) was 5.74. For the same compound, the “CD46 expression, Pre-Treatment Biopsy” value (CD46 expression [2]; Esophageal Cancer) was 5.91, the “CD46 expression diff (post minus pre)” value (CD46 expression [2]; Gastric Cancer) was 0.05 and the “Percent Change in CD46 expression” value (CD46 expression [2]; Gastric Cancer) was 0.8%. For the same compound, the “CD46 expression, Post-Treatment Biopsy” value (CD46 expression [2]; Gastric Cancer) was 5.69, the “CD46 expression, Pre-Treatment Biopsy” value (CD46 expression [2]; Gastric Cancer) was 5.64 and the “CD46 expression diff (post minus pre)” value (CD46 expression [2]; Pancreatic Cancer) was 0.06. The “Percent Change in CD46 expression” value (CD46 expression [2]; Pancreatic Cancer) was 1.0%, the “CD46 expression, Post-Treatment Biopsy” value (CD46 expression [2]; Pancreatic Cancer) was 5.93 and the “CD46 expression, Pre-Treatment Biopsy” value (CD46 expression [2]; Pancreatic Cancer) was 5.87.
